Test results: PubChem BioAssay (NCI)
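Tested at 5 concentrations; 48 h exposure; 96-well plates; endpoints linearly interpolated, else capped at highest concentration. TGI is the concentration that stops growth completely.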

Assays:
Assay in all cases: DTP human tumour cell line panel, 48 h
SW-620 colon = tested on: SW-620 colon
M14 melanoma = tested on: M14 melanoma
MDA-N = tested on: MDA-N
SN12C renal = tested on: SN12C renal
HCT-15 colon = tested on: HCT-15 colon
MOLT-4 leukemia = tested on: MOLT-4 leukemia
UACC-62 melanoma = tested on: UACC-62 melanoma
UACC-257 melanoma = tested on: UACC-257 melanoma
HT29 colon = tested on: HT29 colon
EKVX NSCLC = tested on: EKVX NSCLC

| Compound | TGI (SW-620 colon) [µM] | TGI (M14 melanoma) [µM] | TGI (MDA-N) [µM] | TGI (SN12C renal) [µM] | TGI (HCT-15 colon) [µM] | TGI (MOLT-4 leukemia) [µM] | TGI (UACC-62 melanoma) [µM] | TGI (UACC-257 melanoma) [µM] | TGI (HT29 colon) [µM] | TGI (EKVX NSCLC) [µM] |
| --- | --- | --- | --- | --- | --- | --- | --- | --- | --- | --- |
| O=[N+]([O-])/C=C/c1cn(CCCCCn2cc(/C=C/[N+](=O)[O-])c3ccccc32)c2ccccc12 | 2.57 | 15.1 | 6.67 | > 21.5 | 8.67 | > 20.4 | 31.5 | 13.8 | 7.82 | > 37.4 |
| CNc1ccc(Cl)cc1S(=O)(=O)c1ccccc1[N+](=O)[O-] | > 100 | > 100 | > 100 | > 100 | > 100 | > 100 | > 100 |  | > 100 | > 100 |
| COc1ccc(-c2nc(-c3cnccn3)n(C3OC(CO)C(O)C(O)C3O)n2)cc1 (configuration not stated) | > 100 | > 100 | > 100 | > 100 | > 100 | > 100 | > 100 | > 100 | > 100 | > 100 |
| COC1=CC(=O)C2=C(C1=O)[C@H]1CC[C@]3(C)[C@@H](OC(C)=O)CC[C@H]3[C@@H]1CC2 | > 100 | > 100 | > 100 | > 100 | > 100 | 84 |  | > 100 | 48.5 | 28.5 |
| CNc1ccc(S(=O)Nc2ccccc2)cc1 (configuration not stated) | > 100 |  | > 100 | > 100 | > 100 | > 100 | 81.3 | > 100 | > 100 | > 100 |
| CC(C)(C)OC(=O)N1CCc2c(n(C/C=C/c3ccccc3)[nH]c2=O)C1 | > 100 | > 100 | > 100 | > 100 | > 100 | > 100 | > 100 | > 100 | > 100 | > 100 |
| CC/C(Cl)=N\OC(=O)Nc1ccc(F)cc1F | 2.95 | 22.3 | 12.6 | 11.5 | 5.24 | 4.06 | 32.3 | 34.2 | 51.2 | 20.3 |
| O=C1CSc2nnc(CCCCCCCCc3nnc4n3NC(=O)CS4)n2N1 | > 100 | > 100 | > 100 | > 100 | > 100 | > 100 | > 100 | > 100 | > 100 | > 100 |
| COC(=O)c1ccc(/C=C2\CCc3ccccc3C2=O)cc1 | > 100 | > 100 | > 100 | > 100 | > 100 | > 100 | > 100 | > 100 | > 100 | > 100 |
| CCN(CC)CCN(C)CCc1ccc(Br)cc1 | > 100 | 33.1 | > 100 | > 100 | > 100 | > 100 |  | > 100 | > 100 | > 100 |
| CC1(C)CCC2(C(=O)OC3OC(CO)C(O)C(O)C3O)CCC3(CO)C(=CCC4C5(C)CC(O)C(O)C(C)(C(=O)OC6OC(CO)C(O)C(O)C6O)C5CCC43C)C2C1 (configuration not stated) | > 100 | > 100 | > 100 | > 100 | > 100 | > 100 | > 100 | > 100 | > 100 | > 100 |
| CCOC(=O)/C(C#N)=C/N(CC)/N=C/c1ccccc1 | > 100 | > 100 | > 100 | > 100 | > 100 | > 100 | > 100 | > 100 | > 100 | > 100 |
| COC(=O)c1c(OC)cc2cc3c(c(O)c2c1C)C(=O)C1(O)C(=O)C=C(OC)C(OC(=O)CC(C)N)=C1C3=O (configuration not stated) | > 100 | > 100 | > 100 | > 100 | > 100 | 76.3 | > 100 | > 100 | 43.7 | 72.4 |
| CC1=C2C(=O)c3ccccc3C(=O)[C@H]2C[C@@H](N2CCCCCC2=O)O1 | 33.1 | 28.8 | 29.4 | 34.5 | 47.5 | 58.5 | 37.4 | 31.2 | 71.2 | 57 |
| CCOC(=O)CCCn1cc(C(=O)OC)nn1 | > 100 |  | > 100 | > 100 | > 100 | > 100 | > 100 | > 100 | > 100 | > 100 |
| CC12CC(c3ccccc3O1)C(C(=O)Nc1cccc(F)c1)C(=O)N2 (configuration not stated) | > 100 | > 100 | > 100 |  | > 100 | 54.2 | > 100 | > 100 | > 100 | > 100 |
| COc1ccc(C=Nc2ccc(-c3nc4ccccc4[nH]3)cc2)cc1OC | > 100 | > 100 | > 100 | > 100 | > 100 | > 100 |  | > 100 | > 100 | > 100 |
| CCOC(=O)c1nc2ccccc2nc1NCc1ccc(Cl)cc1Cl | > 100 | > 100 | > 100 |  | > 100 | > 100 | > 100 | > 100 | > 100 | > 100 |
